Source: patent publication US20250093329A1, “SCREENING OF COMPOUNDS” (THE UNIVERSITY OF TULSA, priority 2022, published 2025)

How the values were obtained:
Format in all cases: cell-based
[1] = test system: A549, NCI H196 and MCF10A; assay: Comparison of effectiveness between cell lines (FIG. 27); conditions: 50 μM to 200 μM, L15, one hour CTG
Experimental: FIG. 27 provides a comparison of the effectiveness of the compounds against A549, NCI H196 and MCF10A at concentrations in the range of 50 μM to 200 μM.

[2] = test system: lung cancer cells A549; assay: Rapid one hour CellTiter-Glo ATP screening (FIGS. 16-18, 21-24); conditions: for effectiveness by POC (FIG. 17): 10-30 μM; for effectiveness by POC (FIG. 24): L15 media
Excerpt: (§1) When used to identify compounds for specific patients, the following steps will be carried out: • Individualized patient cells will be acquired from a tumor biopsy and cultured/grown in patient blood serum and/or plasma. (In most instances the cells will be obtained using a needle biopsy; i.e. fine needle aspiration biopsy. Optionally, the cells may be obtained from resected tumor (i.e. excisional biopsy, which is an attempt at complete tumor removal), and/or a core biopsy; (i.e. removal of part of the tumor). Alternatively, cells may be obtained from blood draw samples, which would contain leukemia, lymphoma and myeloma cells.) • The cells (as few as 100 cells per experiment) will be screened directly in patient blood serum and/or plasma in the absence or presence of glycolysis inhibitor, 2-deoxyglucose (2DG) using a rapid (1-2 hr) screening assay (CellTiter-Glo, or “CTG”). • NOTE: while the discussion herein focuses on CTG, other assays suitable for measuring changes in ATP levels will perform equally as well. […] DMEM contains glucose, but L15 has substituted glucose with galactose. This means that in DMEM, 2DG is added to inhibit glycolysis; but in L15, the addition of 2DG is unnecessary to achieve the same result as the lack of glucose in L15 precludes access to the metabolic pathway that would utilize glucose. […] The compounds identified with compound numbers 140-161 as depicted in FIGS. 11 and 12 were tested in this manner. NOTE: compound number 141 is Gramicidin, also known as Gramicidin D. This antibiotic is identified by CAS number 1393-88-0. • The rapid screening assay provides evidence of unexpected drug activity for known drugs against cancer cell lines. Thus, the screening of FDA-approved drugs for synergistic activity with metabolic inhibitors can provide anticancer drugs from drugs currently used for other purposes.
The data presented in FIGS. 16-33 was developed using compounds 140-161 as depicted in FIGS. 11 and 12. The graphs of FIGS. 16-33 provide a direct comparison of the rapid screening method wherein the tests were carried out over one hour (CTG) using Dulbecco's Modified Eagle Medium (DMEM), […] 2DG and L15 media (described below), a cell media that is missing glucose; the equivalent to DMEM plus 2DG. Compounds 140-161 were screened against lung cancer cells designated A549. Similar results are obtained in most cases, but a few examples show significant enhancement of activity in L15. As used in the discussion below, Rot=rotenone, and 2DG+Rot=a positive control (ATP should be inhibited to a high degree).
FIG. 16 provides a comparison of DMEM and L15 media at 50-200 μM. After one hour of exposure and assessment of the ATP values using CellTiter-Glo assay, the “percent of control” (POC) value is determined with respect to the DMSO control. As reflected by FIG. 16, the following compounds, at the indicated concentrations, would be considered effective against the cancer cells of line A549: 140, 142, 149, 150, 155, 156, 159, 160, 161. The same compounds were tested at 10-30 μM with the results depicted in FIG. 17. At these concentrations, the following compounds would be considered effective at least one concentration level: 141, 155, 156, 159, 160.
FIG. 18 provides a comparison of DMEM with 10 mM 2DG with the compounds of interest at concentrations of 50 to 200 μM and 10 to 30 μM to L15 Media with the compounds of interest at concentrations of 50 to 200 μM and 10 to 30 μM. The compounds were tested against the same cancer cell line with one hour of exposure and CTG assay with POC reported against a DMSO control. Under the reported conditions the following compounds would be considered to have effectiveness in treating the cancer cell line at least one concentration level: 140, 141, 149, 155, 156, 159, 160, 161.
FIGS. 21 and 22 provide test data developed using the rapid testing method described above. […]

[3] = Rapid one hour CellTiter-Glo ATP screening in L15 (FIG. 26); conditions: MCF10A; L15 media; one hour CTG; at least one concentration level
[4] = test system: pancreatic cancer cell line SW-1990; assay: Rapid one hour CellTiter-Glo ATP screening in L15 (FIG. 30); conditions: for effectiveness by POC (FIG. 30): L15 media, one hour CTG, at least one concentration level
Excerpt: [The source words this procedure for another cell line and reports this cell line under the same test.] as §1
(§2) The data presented in FIGS. 16-33 was developed using compounds 140-161 as depicted in FIGS. 11 and 12. […]

[5] = test system: ovarian cancer cell line HeLa; assay: Rapid one hour CellTiter-Glo ATP screening in L15 (FIG. 28); conditions: for effectiveness by POC (FIG. 28): L15 media, one hour CTG, at least one concentration level
Excerpt: [The source words this procedure for another cell line and reports this cell line under the same test.] as §1, §2

[6] = test system: breast cancer cell line MCF7; assay: Rapid one hour CellTiter-Glo ATP screening in L15 (FIG. 29); conditions: for effectiveness by POC (FIG. 29): L15 media, one hour CTG, at least one concentration level
Excerpt: [The source words this procedure for another cell line and reports this cell line under the same test.] as §1, §2

[7] = test system: pancreatic cancer cell line CFPAC-1; assay: Rapid one hour CellTiter-Glo ATP screening in L15 (FIG. 31)
Excerpt: [The source words this procedure for another cell line and reports this cell line under the same test.] (§3) When used to identify compounds for specific patients, the following steps will be carried out: • Individualized patient cells will be acquired from a tumor biopsy and cultured/grown in patient blood serum and/or plasma. (In most instances the cells will be obtained using a needle biopsy; i.e. fine needle aspiration biopsy. Optionally, the cells may be obtained from resected tumor (i.e. excisional biopsy, which is an attempt at complete tumor removal), and/or a core biopsy; (i.e. removal of part of the tumor). Alternatively, cells may be obtained from blood draw samples, which would contain leukemia, lymphoma and myeloma cells.) • The cells (as few as 100 cells per experiment) will be screened directly in patient blood serum and/or plasma in the absence or presence of glycolysis inhibitor, 2-deoxyglucose (2DG) using a rapid (1-2 hr) screening assay (CellTiter-Glo, or “CTG”). • NOTE: while the discussion herein focuses on CTG, other assays suitable for measuring changes in ATP levels will perform equally as well. […] DMEM contains glucose, but L15 has substituted glucose with galactose. This means that in DMEM, 2DG is added to inhibit glycolysis; but in L15, the addition of 2DG is unnecessary to achieve the same result as the lack of glucose in L15 precludes access to the metabolic pathway that would utilize glucose. […]

[8] = test system: MCF7 and MCF10A; assay: Comparison of cancerous and non-cancerous cells (FIG. 33); conditions: 10 μM to 30 μM
Experimental: FIG. 33 compares the impact of compounds 140-161 on breast cancer cell line MCF7 and non-cancerous […] cells MCF10A. All compounds tested were in the range of 10 μM to 30 μM.

[9] = test system: lung cancer cell line NCI H196; assay: Rapid one hour CellTiter-Glo ATP screening in L15 (FIG. 25); conditions: L15 media, one hour CTG, at least one concentration level
Excerpt: [The source words this procedure for another cell line and reports this cell line under the same test.] as §3

[10] = DMEM and L15 media, one hour, at least one concentration level
[11] = 1-8 μm, 10-30 μM and 50-200 μM, one hour CTG, at least one concentration level

Question: Which “subtype specificity (FIG. 27)” value [1] does the source give for `CN(C)CCCOc1nn(Cc2ccccc2)c2ccccc12` [Compound 156, benzydamine] here?
Answer: Its value is “subtype specificity”.

Question: What about the “effectiveness (FIG. 23)” value ([2]; 145 μM in L15) of the same molecule?
Answer: The value was “unexpected effectiveness”.

Question: And the “effectiveness by POC (FIG. 17)” value [2, 10]?
Answer: The value was “effective”.

Question: What about the “effectiveness by POC (FIG. 16)” value ([2]; DMEM and L15 media, 50-200 μM, one hour, CellTiter-Glo, DMSO control) of the same molecule?
Answer: Its value is “effective”.

Question: And the “effectiveness by POC when combined with 2DG (FIG. 22)” value ([2]; DMEM with 10 mM 2DG, 1-8 μm, 10-30 μM and 50-200 μM, one hour CTG, at least one concentration level)?
Answer: Its value is “effective”.

Question: And the “effectiveness by POC (FIG. 24)” value [2, 11]?
Answer: Its value is “likely to be effective”.

Question: What about the “effectiveness by POC (FIG. 26)” value [3] of the same molecule?
Answer: The value was “likely effective”.

Question: What about the “effectiveness against pancreatic cancer (FIG. 30)” value ([4]; 145 μM, L15) of the same molecule?
Answer: Its value is “effective”.

Question: What about the “effectiveness by POC (FIG. 30)” value [4] of the same molecule?
Answer: Its value is “likely effective”.

Question: And the “effectiveness against ovarian cancer (FIG. 28)” value ([5]; 145 μM, L15)?
Answer: Its value is “effective”.

Question: What about the “effectiveness by POC (FIG. 28)” value [5] of the same molecule?
Answer: The value was “likely effective”.

Question: What about the “effectiveness against breast cancer (FIG. 29)” value ([6]; 145 μM, L15) of the same molecule?
Answer: Its value is “effective”.

Question: And the “effectiveness by POC (FIG. 29)” value [6]?
Answer: The value was “likely effective”.

Question: What about the “effectiveness against pancreatic cancer (FIG. 31)” value ([7]; 145 μM, L15) of the same molecule?
Answer: The value was “effective”.

Question: And the “effectiveness by POC (FIG. 31)” value ([7]; L15 media, one hour CTG, at least one concentration level)?
Answer: The value was “likely effective”.

Question: And the “impact on cancerous versus non-cancerous cells (FIG. 33)” value [8]?
Answer: The value was “significantly more impact on the cancerous cells”.

Question: Which “subtype specificity (FIG. 27)” value [1] does the source give for Gramicidin [Compound 141] here?
Answer: Its value is “subtype specificity”.

Question: What about the “effectiveness by POC (FIG. 17)” value [2, 10] of the same molecule?
Answer: The value was “effective”.

Question: What about the “effectiveness by POC (FIG. 24)” value [2, 11] of the same molecule?
Answer: Its value is “likely to be effective”.

Question: What about the “effectiveness by POC (FIG. 26)” value [3] of the same molecule?
Answer: The value was “likely effective”.

Question: What about the “effectiveness by POC (FIG. 30)” value [4] of the same molecule?
Answer: The value was “likely effective”.

Question: And the “effectiveness by POC (FIG. 28)” value [5]?
Answer: Its value is “likely effective”.

Question: And the “effectiveness by POC (FIG. 29)” value [6]?
Answer: The value was “likely effective”.

Question: What about the “effectiveness by POC (FIG. 25)” value [9] of the same molecule?
Answer: Its value is “likely effective”.
